Experimental data reported in patent US11254663B2 (BRISTOL-MYERS SQUIBB COMPANY, priority 2019, dated 2022).

target: FXR (Homo sapiens (Human), UniProt Q96RI1); assay: transient human FXR/Gal4-luciferase reporter assay; type: cell-based; conditions: Gal4-hFXR fusion construct, HEK293 reporter cells; response relative to 8 μM GW-4064
Procedure, shortened: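 HEK293 cells stably carrying a 5×Gal4 response element–firefly luciferase reporter were transiently transfected overnight with a Gal4 DBD–human FXR LBD fusion plasmid. Compound was added in DMSO and cells were incubated overnight at 37 °C, 5% CO2. Activity was read as Steady-Glo luminescence.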

Sequence of FXR (Q96RI1 262-486): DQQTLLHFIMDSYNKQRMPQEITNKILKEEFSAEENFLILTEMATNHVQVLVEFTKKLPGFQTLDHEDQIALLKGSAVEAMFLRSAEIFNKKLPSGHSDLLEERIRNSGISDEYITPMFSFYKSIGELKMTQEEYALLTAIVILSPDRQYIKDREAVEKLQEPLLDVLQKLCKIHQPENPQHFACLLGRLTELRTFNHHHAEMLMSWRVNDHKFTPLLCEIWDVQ

Row | SMILES | EC50
1 | CS(=O)(=O)Nc1ccc(-c2cncc(N(CC34CCC(c5nc(C6CC6)no5)(CC3)CC4)C(=O)C34CC(F)(C3)C4)c2)cc1 [Example 427] | 671 nM
2 | O=C(N(CC12CCC(c3nc(C4CC4)no3)(CC1)CC2)c1cncc(-c2cnc(C(F)(F)F)nc2)c1)C12CC(F)(C1)C2 [Example 428, N-((4-(3-cyclopropyl-1,2,4-oxadiazol-5-yl)bicyclo[2.2.2]octan-1-yl)methyl)-3-fluoro-N-(5-(2-(trifluoromethyl)pyrimidin-5-yl)pyridin-3-yl)bicyclo[1.1.1]pentane-1-carboxamide] | 3550 nM
3 | CCOc1ncc(-c2cccc(N(CC34CCC(c5noc(C(C)C)n5)(CC3)CC4)C(=O)C34CC(F)(C3)C4)c2)cn1 [Example 429, N-(3-(2-ethoxypyrimidin-5-yl)phenyl)-3-fluoro-N-((4-(5-isopropyl-1,2,4-oxadiazol-3-yl)bicyclo[2.2.2]octan-1-yl)methyl)bicyclo[1.1.1]pentane-1-carboxamide] | 46 nM
4 | CC(C)c1nc(C23CCC(CN(C(=O)C45CC(F)(C4)C5)c4cccc(-c5ccc(NS(C)(=O)=O)cc5)c4)(CC2)CC3)no1 [Example 430, 3-fluoro-N-((4-(5-isopropyl-1,2,4-oxadiazol-3-yl)bicyclo[2.2.2]octan-1-yl)methyl)-N-(4′-(methylsulfonamido)-[1,1′-biphenyl]-3-yl)bicyclo[1.1.1]pentane-1-carboxamide] | 40 nM
5 | CCOc1ccc(-c2cccc(N(CC34CCC(c5noc(C(C)C)n5)(CC3)CC4)C(=O)C34CC(F)(C3)C4)c2)cc1 [Example 431, N-(4′-ethoxy-[1,1′-biphenyl]-3-yl)-3-fluoro-N-((4-(5-isopropyl-1,2,4-oxadiazol-3-yl)bicyclo[2.2.2]octan-1-yl)methyl)bicyclo[1.1.1]pentane-1-carboxamide] | 25 nM
6 | CCOc1ccc(-c2cccc(N(CC34CCC(c5noc(C(C)C)n5)(CC3)CC4)C(=O)C34CC(F)(C3)C4)c2)cn1 [Example 432, N-(3-(6-ethoxypyridin-3-yl)phenyl)-3-fluoro-N-((4-(5-isopropyl-1,2,4-oxadiazol-3-yl)bicyclo[2.2.2]octan-1-yl)methyl)bicyclo[1.1.1]pentane-1-carboxamide] | 51 nM
7 | Cc1nc2ccc(-c3cccc(N(CC45CCC(c6noc(C(C)C)n6)(CC4)CC5)C(=O)C45CC(F)(C4)C5)c3)cc2s1 [Example 433, 3-fluoro-N-((4-(5-isopropyl-1,2,4-oxadiazol-3-yl)bicyclo[2.2.2]octan-1-yl)methyl)-N-(3-(2-methylbenzo[d]thiazol-6-yl)phenyl)bicyclo[1.1.1]pentane-1-carboxamide] | 37 nM
8 | CC(C)c1nc(C23CCC(CN(C(=O)C45CC(F)(C4)C5)c4cccc(-c5cnc(C6CC6)nc5)c4)(CC2)CC3)no1 [Example 434, N-(3-(2-cyclopropylpyrimidin-5-yl)phenyl)-3-fluoro-N-((4-(5-isopropyl-1,2,4-oxadiazol-3-yl)bicyclo[2.2.2]octan-1-yl)methyl)bicyclo[1.1.1]pentane-1-carboxamide] | 57 nM
9 | CC(C)c1nc(C23CCC(CN(C(=O)C45CC(F)(C4)C5)c4cccc(-c5cnc(C(F)(F)F)nc5)c4)(CC2)CC3)no1 [Example 435, 3-fluoro-N-((4-(5-isopropyl-1,2,4-oxadiazol-3-yl)bicyclo[2.2.2]octan-1-yl)methyl)-N-(3-(2-(trifluoromethyl)pyrimidin-5-yl)phenyl)bicyclo[1.1.1]pentane-1-carboxamide] | 240 nM
10 | CC(C)c1nc(C23CCC(CN(C(=O)C45CC(F)(C4)C5)c4cccc(-c5ccc(OC(F)F)cc5)c4)(CC2)CC3)no1 [Example 436, N-(4′-(difluoromethoxy)-[1,1′-biphenyl]-3-yl)-3-fluoro-N-((4-(5-isopropyl-1,2,4-oxadiazol-3-yl)bicyclo[2.2.2]octan-1-yl)methyl)bicyclo[1.1.1]pentane-1-carboxamide] | 46 nM
11 | CCOc1ncc(-c2cccc(N(CC34CCC(c5noc(C(C)(C)C)n5)(CC3)CC4)C(=O)C34CC(F)(C3)C4)c2)cn1 [Example 437, N-((4-(5-(tert-butyl)-1,2,4-oxadiazol-3-yl)bicyclo[2.2.2]octan-1-yl)methyl)-N-(3-(2-ethoxypyrimidin-5-yl)phenyl)-3-fluorobicyclo[1.1.1]pentane-1-carboxamide] | 39 nM
12 | CC(C)(C)c1nc(C23CCC(CN(C(=O)C45CC(F)(C4)C5)c4cccc(-c5ccc(NS(C)(=O)=O)cc5)c4)(CC2)CC3)no1 [Example 438, N-((4-(5-(tert-butyl)-1,2,4-oxadiazol-3-yl)bicyclo[2.2.2]octan-1-yl)methyl)-3-fluoro-N-(4′-(methylsulfonamido)-[1,1′-biphenyl]-3-yl)bicyclo[1.1.1]pentane-1-carboxamide] | 46 nM
13 | CCOc1ccc(-c2cccc(N(CC34CCC(c5noc(C(C)(C)C)n5)(CC3)CC4)C(=O)C34CC(F)(C3)C4)c2)cc1 [Example 439, N-((4-(5-(tert-butyl)-1,2,4-oxadiazol-3-yl)bicyclo[2.2.2]octan-1-yl)methyl)-N-(4′-ethoxy-[1,1′-biphenyl]-3-yl)-3-fluorobicyclo[1.1.1]pentane-1-carboxamide] | 70 nM
14 | Cc1nc2ccc(-c3cccc(N(CC45CCC(c6noc(C(C)(C)C)n6)(CC4)CC5)C(=O)C45CC(F)(C4)C5)c3)cc2s1 [Example 441, N-((4-(5-(tert-butyl)-1,2,4-oxadiazol-3-yl)bicyclo[2.2.2]octan-1-yl)methyl)-3-fluoro-N-(3-(2-methylbenzo[d]thiazol-6-yl)phenyl)bicyclo[1.1.1]pentane-1-carboxamide] | 68 nM
15 | CC(C)(C)c1nc(C23CCC(CN(C(=O)C45CC(F)(C4)C5)c4cccc(-c5cnc(C6CC6)nc5)c4)(CC2)CC3)no1 [Example 442, N-((4-(5-(tert-butyl)-1,2,4-oxadiazol-3-yl)bicyclo[2.2.2]octan-1-yl)methyl)-N-(3-(2-cyclopropylpyrimidin-5-yl)phenyl)-3-fluorobicyclo[1.1.1]pentane-1-carboxamide] | 71 nM
16 | CC(C)(C)c1nc(C23CCC(CN(C(=O)C45CC(F)(C4)C5)c4cccc(-c5cnc(C(F)(F)F)nc5)c4)(CC2)CC3)no1 [Example 443, N-((4-(5-(tert-butyl)-1,2,4-oxadiazol-3-yl)bicyclo[2.2.2]octan-1-yl)methyl)-3-fluoro-N-(3-(2-(trifluoromethyl)pyrimidin-5-yl)phenyl)bicyclo[1.1.1]pentane-1-carboxamide] | 357 nM
17 | CC(C)(C)c1nc(C23CCC(CN(C(=O)C45CC(F)(C4)C5)c4cccc(-c5ccc(OC(F)F)cc5)c4)(CC2)CC3)no1 [Example 444, N-((4-(5-(tert-butyl)-1,2,4-oxadiazol-3-yl)bicyclo[2.2.2]octan-1-yl)methyl)-N-(4′-(difluoromethoxy)-[1,1′-biphenyl]-3-yl)-3-fluorobicyclo[1.1.1]pentane-1-carboxamide] | 61 nM
18 | CC(C)(C)c1nc(C23CCC(CN(C(=O)C45CC(F)(C4)C5)c4cccc(-c5ccc(C(F)(F)F)cc5)c4)(CC2)CC3)no1 [Example 445, N-((4-(5-(tert-butyl)-1,2,4-oxadiazol-3-yl)bicyclo[2.2.2]octan-1-yl)methyl)-3-fluoro-N-(4′-(trifluoromethyl)-[1,1′-biphenyl]-3-yl)bicyclo[1.1.1]pentane-1-carboxamide] | 719 nM
